Patent US20100144606A1, “COMBINATION 408” (AstraZeneca AB, priority 2008, published 2010)
Where a name gives a salt, the structure may show the parent alone.

Assays:
[1] = target: T1, β2 adrenoceptor (Homo sapiens, UniProt P07550); test: Adrenergic β mediated cAMP production in H292 cells (AlphaScreen); format: cell-based; conditions: Intrinsic Activity as a fraction relative to the maximum activity of formoterol
T1 construct: Adherent H292 cells were removed from tissue culture flasks; endogenous in cells; host or cells: H292 cells
T1 sequence (P07550 whole entry): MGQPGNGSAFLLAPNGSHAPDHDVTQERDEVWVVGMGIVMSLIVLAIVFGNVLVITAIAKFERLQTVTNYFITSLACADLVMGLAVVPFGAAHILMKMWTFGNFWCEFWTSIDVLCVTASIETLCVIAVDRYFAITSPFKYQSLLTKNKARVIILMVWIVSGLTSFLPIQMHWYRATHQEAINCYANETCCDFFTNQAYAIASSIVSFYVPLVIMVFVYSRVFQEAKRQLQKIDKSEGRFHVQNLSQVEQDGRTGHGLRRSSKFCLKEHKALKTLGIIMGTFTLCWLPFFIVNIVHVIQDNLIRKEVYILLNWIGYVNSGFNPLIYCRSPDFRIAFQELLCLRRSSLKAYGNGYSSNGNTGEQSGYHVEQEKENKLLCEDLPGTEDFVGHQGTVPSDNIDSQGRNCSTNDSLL
Protocol: Adrenergic β Mediated cAMP Production.
Cell preparation. H292 cells were grown in 225 cm2 flasks incubator at 37° C., 5% CO2 in RPMI medium containing, 10% (v/v) FBS (foetal bovine serum) and 2 mM L-glutamine.
Experimental Method. Adherent H292 cells were removed from tissue culture flasks by treatment with Accutase™ cell detachment solution for 15 minutes. Flasks were incubated for 15 minutes in a humidified incubator at 37° C., 5% CO2. Detached cells were re-suspended in RPMI media (containing 10% (v/v) FBS and 2 mM L-glutamine) at 0.05×10^6 cells per mL. 5000 cells in 100 μL were added to each well of a tissue-culture-treated 96-well plate and the cells incubated overnight in a humidified incubator at 37° C., 5% CO2. […]
AlphaScreen™ cAMP detection. The concentration of cAMP (cyclic adenosine monophosphate) in the cell lysate was determined using AlphaScreen™ methodology. […] The AlphaScreen™ signal was measured using an EnVision spectrophotometer (Perkin-Elmer Inc.) with the recommended manufacturer's settings. cAMP concentrations were determined by reference to a calibration curve determined in the same experiment using standard cAMP concentrations. […] Intrinsic Activity was expressed as a fraction relative to the maximum activity determined for formoterol in each experiment. […]

[2] = Gravimetric Vapour Sorption (GVS); format: physicochemical; conditions: at 80% RH (±0.2%)
Protocol: Instrument Details: • X-Ray Powder Diffraction (XRPD)—PANalytical X'Pert machine in 2Ø-Ø configuration or a PANalytical Cubix machine in Ø-Ø configuration over the scan range 2° to 40° 2Ø with 100-second exposure per 0.02° increment. The X-rays were generated by a copper long-fine focus tube operated at 45 kV and 40 mA. […] The Data was collected on zero background holders on which ˜2 mg of the compound was placed. The holder was made from a single crystal of silicon, which had been cut along a non-diffracting plane and then polished on an optically flat finish. The X-rays incident upon this surface were negated by Bragg extinction. • Differential Scanning Calorimetry (DSC) thermograms were measured using a TA Q1000 Differential Scanning Calorimeter, with aluminium pans and pierced lids. The sample weights varied between 0.5 to 5 mg. The procedure was carried out under a flow of nitrogen gas (50 mL/min) and the temperature studied from 30 to 230° C. at a constant rate of temperature increase of 10° C. per minute. • Gravimetric Vapour Sorption (GVS) profiles were measured using a Surface Measurements Systems Dynamic Vapour Sorption DVS-1 or a DVS Advantage instrument. The solid sample ca. 1-5 mg was placed into a glass vessel and the weight of the sample was recorded during a dual cycle step method (40 to 90 to 0 to 90 to 0% relative humidity (RH), in steps of 10% RH).

[3] = system: guinea pig trachea; test: Bronchodilator activity in the guinea pig isolated tracheal ring preparation; format: cell-based; conditions: 60 min, methacholine (1 μM) contracted, mean±s.e.mean
Protocol: Evaluation of Bronchodilator Activity in the Guinea Pig Isolated Tracheal Ring Preparation
Guinea pigs (300-500 g) were killed by cervical dislocation and the trachea was isolated. The trachea was cut into segments 2-3 cartilage rings in width and suspended in 10 ml organ baths in modified Krebs' solution (mM; NaCl, 90; NaHCO3, 45; KCl, 5; MgSO4.7H2O, 0.5; Na2HPO4.2H2O, 1; CaCl2, 2.25; glucose, 10; pH 7.4 gassed with 5% CO2, 95% O2 at 37° C.). The tracheal rings were attached to an isometric force transducer for the measurement of isometric tension. The tissues were washed and a force of 1 g was applied to each tissue. The rings were contracted with methacholine (1 μM). Once the contraction had reached a plateau, vehicle (0.01% DMSO in distilled H2O), compound W (1 nM or 3 nM), compound X (1 nM), compound Y (1 nM), a combination of compound W (3 nM) and compound X (1 nM), or a combination of compound W (1 nM) and compound Y (1 nM) was added and the tissue left for 60 min. The tension was measured in each ring at 60 min following compound addition and was expressed as a % relaxation of the constriction to methacholine (1 μM) (mean±s.e.mean). Data were collected using the Chart 4 software (ADInstruments, Charlgrove, UK).

O=C(CCNCCc1cccc(F)c1)N(CCNCCc1ccc(O)c2[nH]c(=O)sc12)C1CCCCC1 [Preparation 2, N-Cyclohexyl-N^3-[2-(3-fluorophenyl)ethyl]-N-(2-{[2-(4-hydroxy-2-oxo-2,3-dihydro-1,3-benzothiazol-7-yl)ethyl]amino}ethyl)-β-alaninamide dihydrobromide salt]
β2 Int Act [1]: 0.85

C[C@@](C(=O)O[C@H]1C[N+]2(CCc3ccc(F)cc3)CCC1CC2)(c1ccccc1)N1CCCCC1.[Br-] [Preparation 4 bromide Form A, (R)-1-[2-(4-Fluoro-phenyl)-ethyl]-3-((S)-2-phenyl-2-piperidin-1-yl-propionyloxy)-1-azonia-bicyclo[2.2.2]octane bromide (Form A)]
GVS weight increase [2]: 0.1 % w/w

C[C@@](C(=O)O[C@H]1C[N+]2(CCc3ccc(F)cc3)CCC1CC2)(c1ccccc1)N1CCCCC1.[Br-] [Preparation 4 bromide Form C, (R)-1-[2-(4-Fluoro-phenyl)-ethyl]-3-((S)-2-phenyl-2-piperidin-1-yl-propionyloxy)-1-azonia-bicyclo[2.2.2]octane bromide (Form C)]
GVS weight increase [2]: 4 % w/w

C[C@@](C(=O)O[C@H]1C[N+]2(CCc3ccc(F)cc3)CCC1CC2)(c1ccccc1)N1CCCCC1.Cc1ccc(S(=O)(=O)[O-])cc1 [Preparation 16, (R)-1-(4-fluorophenethyl)-3-((S)-2-phenyl-2-(piperidin-1-yl)propanoyloxy)-1-azoniabicyclo[2.2.2]octane 4-methylbenzenesulphonate]
GVS weight increase [2]: 0.1 % w/w

C[N+](C)(CCOCc1ccc(Cl)cc1)Cc1cnc([C@](O)(c2ccccc2)C2CCCCC2)o1.C[N+](C)(CCOCc1ccc(Cl)cc1)Cc1cnc([C@](O)(c2ccccc2)C2CCCCC2)o1.O=S(=O)([O-])c1cccc2c(S(=O)(=O)[O-])cccc12 [compound X, [2-(4-Chloro-benzyloxy)-ethyl]-[2-((R)-Cyclohexyl-hydroxy-phenyl-methyl)-oxazol-5-ylmethyl]-dimethyl-ammonium hemi-napadisylate salt, reference compound]
percentage relaxation ([3]; 1 nM, n=4, FIG. 29): 1±0.5%

C[C@@](C(=O)O[C@H]1C[N+]2(CCc3ccc(F)cc3)CCC1CC2)(c1ccccc1)N1CCCCC1.[Br-] [compound Y, (R)-1-[2-(4-Fluoro-phenyl)-ethyl]-3-((S)-2-phenyl-2-piperidin-1-yl-propionyloxy)-1-azonia-bicyclo[2.2.2]octane bromide]
percentage relaxation ([3]; 1 nM, n=6, FIG. 30): 17±3.4%

N-Cyclohexyl-N^3-[2-(3-fluorophenyl)ethyl]-N-(2-{[2-(4-hydroxy-2-oxo-2,3-dihydro-1,3-benzothiazol-7-yl)ethyl]amino}ethyl)-β-alaninamide di-D-Mandelate salt [Preparation 3 (Form A)]
percentage relaxation ([3]; 1 nM, n=6, FIG. 30): 48±3.9%
percentage relaxation ([3]; 3 nM, n=4, FIG. 29): 46±10.7%
GVS weight increase [2]: 1 % w/w
